“Also recorded” adds a separate entry of the source.
Tests used:
HER2 [1] = conditions: report by Smith-Jones and co-workers (36); cited from earlier work
SKOV-3 cells = assay: In vitro uptake assay in SKOV-3 cells (blocking, siRNA, drug treatment, specific activity); format: cell-based, human; conditions: NVP-AUY922 for 24 h
Description: For siRNA-mediated HER2 knockdown, SKOV-3 cells were transfected with 25 nM scramble control (SCR; Dharmacon, Lafayette, Colo., ON-TARGETplus Non-targeting Pool, Cat. Nr: D-001810-10-05) or HER2-targeting siRNA (Invitrogen ERBB2 Silencer® Select Validated siRNA; Cat. Nr: 4457298) by reverse wet transfection with Lipofectamine RNAiMAX (Invitrogen) according to manufacturer's instructions. 3×10^5 cells were seeded in 12-well plates 48 h prior to uptake experiment. Target knockdown was verified by western blotting on cells that were transfected in parallel.
For all uptake studies in response to drug treatment, 2.5×10^5 SKOV-3 cells were seeded in complete medium 48 h prior to uptake experiments.
For baseline uptake in HER2 positive or negative lineages, 3×10^5 cells were seeded in complete media in 12-well plates (Corning, Tewksbury Mass.) and allowed to recover overnight. Cells were washed twice with serum-free medium and pulsed with 370 KBq in 500 μL serum-free medium for one h. For blocking studies, cells were co-incubated with tracer and 0.5 mg/mL cold unlabeled [^19F]GE-226[SEQ ID NO 1].
Cells were washed with PBS, trypsinized, neutralized with complete medium and centrifuged. The pellet was washed three times with PBS and lysed in 120 μL RIPA buffer (Sigma-Aldrich). The radioactivity of 100 μL lysate was counted on a Packard Cobra II gamma counter (Perkin Elmer). Radioactivity was normalized to applied radioactivity and protein content, which was determined for each sample by BCA assay (Pierce, Rockford, Ill.).

HER2 [2] = assay: HER2 expression in SKOV-3 tumors after NVP-AUY922; format: in vivo, mice; conditions: 3 doses of 50 mg/kg NVP-AUY922 versus vehicle
Description: For blocking studies, SKOV-3 xenograft bearing mice were administered 500 μg (˜25 mg/kg) cold [^19F]GE-226[SEQ ID NO 1] intravenously (i.v.) through the tail vain 20 minutes before administration of radiotracer. […] To investigate response to HSP90 inhibition, SKOV-3 xenograft-bearing mice were treated with 50 mg/kg NVP-AUY922 or equivalent volume of vehicle (˜5 μL/g body weight; 10% DMSO and 5% Tween-20 in PBS) q.d. i.p. for three days. 24 h after the last treatment, animals were used for PET imaging.
Excised and snap frozen tumor tissue samples were homogenized in RIPA lysis buffer (Sigma-Aldrich) with the PreCellys 24 homogenizer and CK14 beads-containing tubes (two cycles of 25 seconds at 6500 rpm). HER2 expression was determined by ELISA (Calbiochem, Darmstadt, Germany, c-ErbB2/c-Neu Rapid Format ELISA Ki, Cat. Nr: QIA10-1EA) according to manufacturer's instructions.

SKOV-3 xenografts = assay: PET-CT imaging and kinetic modeling, SKOV-3 xenografts; format: in vivo, mice
Description: […] […] To investigate response to HSP90 inhibition, SKOV-3 xenograft-bearing mice were treated with 50 mg/kg NVP-AUY922 or equivalent volume of vehicle (˜5 μL/g body weight; 10% DMSO and 5% Tween-20 in PBS) q.d. i.p. for three days. 24 h after the last treatment, animals were used for PET imaging.
Mice were anesthetized through isoflurane inhalation and scanned on a dedicated small animal PET-CT scanner (Siemens Multimodality Inveon, Erlangen, Germany). Low dose CT scans were first acquired (80 kVp, 0.5 mA, 220 degree rotation, 600 ms per degree exposure time, 80 μm reconstruction pixel size) for PET attenuation correction and to obtain an anatomical reference. PET images were acquired following a bolus i.v. injection of approximately 3.7 MBq [^18F]GE-226 in the tail vein. Dynamic emission scans were acquired in list mode format over 60 minutes. The acquired data were sorted into 0.5-mm sinogram bins and 19 time frames for image reconstruction by filtered back projection (4×15 seconds and 4×60 seconds followed by 11×300 seconds). The Siemens Inveon Research Workplace software was used for visualization of radiotracer uptake. 30 to 60-minute cumulative images of the dynamic data were employed to define 3-dimensional (3D) regions of interest (ROI). Arterial input function was estimated by drawing ROIs over the center of the heart cavity using 0.25 to 2 minutes of cumulative images. The count densities were averaged for all ROIs at each time point to obtain time versus radioactivity curves (TAC). Tumor TACs were normalized to injected dose measured by a VDC-304 dose calibrator (Veenstra Instruments, Joure, Netherlands) and normalized uptake was expressed as percentage injected dose per mL tissue (NUV; % ID/mL). Normalized uptake of radiotracer at 60 minutes (NUV60) was used for comparisons. For qualitative image visualization, cumulative images of the dynamic data (30 to 60 min) were also iteratively reconstructed (OSEM3D).
Kinetic analysis of PET data was performed applying a standard two-tissue irreversible compartmental model to fit each tumor TAC with the corresponding image-derived plasma TAC as input function (IF) to estimate K1 (mL/cm^3/min), k2, (1/min) and k3 (1/min) and the blood vascular component Vb (mL blood/mL tissue; unitless). The irreversible uptake rate Ki (mL/cm^3/min) was computed as K1×k3/(k2+k3). To estimate the kinetic parameters the measured tumor TAC (tTAC) was modeled as tTAC(t)=(1−Vb)h(t)⊗IF(t)+VbIF(t) with h(t) indicating the unknown tissue impulse function and ⊗ the convolution operator. The parameter vector p=[K1, k2, k3, Vb] was estimated with the standard Weighted Non-Linear Least Squares (WNLLS) by minimizing the Weighted Residual Sum of Squares (WRSS) function

HER2 [3] = assay: Western blot of HER2 protein expression in drug-treated SKOV-3 cells; format: cell-based, human; conditions: NVP-AUY922 for 24 h, compared to untreated controls
Description: For all uptake studies in response to drug treatment, 2.5×10^5 SKOV-3 cells were seeded in complete medium 48 h prior to uptake experiments. […] Cells were lysed in RIPA buffer containing protease and phosphatase inhibitors (from Sigma-Aldrich). Equal amounts of protein (20 μg) were resolved on 4-15% mini-protean TGX gels (Biorad, Hercules, Calif.) and transferred to PVDF membranes (Trans-Blot Turbo Transfer Packs, Biorad). Membranes were blocked for 1 h in 5% milk in Tris-buffered saline containing 0.1% v/v tween (TBST, Cell Signaling, Danvers, Mass.) and incubated with antibodies against HER2 (Cell Signal, Cat. Nr: 2165 for visualization of p95HER2 and full-length HER2 bands and Cat. Nr: 4290 for blots where only full-length HER2 is shown), EGFR (Cell Signal, Cat. Nr: 4267) or (3-actin (Abcam, Cambridge, United Kingdom, Cat. Nr: ab6276) overnight at 4° C. Secondary HRP-conjugated mouse and rabbit antibodies (Santa Cruz Biotechnology, Dallas, Tex.) were applied for one h at room temperature. Signals were visualized using Amersham ECL™ Western Blotting Detection Reagent (GE Healthcare) and Amersham Hyper-film (GE Healthcare).

NCI-N87 tumors = assay: Fluorescent GE-226 localization versus DAKO HercepTest, NCI-N87 tumors; format: in vivo, mice; conditions: 15 mg/kg i.v., tumors excised two h post injection
Description: (§1) The bilateral A431/NCI-N87 model was established by s.c. injection of A431 (1×10^7 cells) and NCI-N87 cells (2×10^6 cells) in 100 μL PBS mixed 1:1 with Matrigel™ in the lower flanks of 4-6 week old male CD-1 nude mice (Charles River Laboratories, Wilmington, Mass.). Tumor volumes were monitored frequently as described above and when they reached 50-100 mm^3 (approximately 3-4 weeks), mice were administered a mixture of Hoechst (˜20 mg/kg) and fluorescein-conjugated-GE226[SEQ ID NO 1] (˜15 mg/kg) in 100 μL PBS i.v. through the tail vein. The tumors were excised 120 minutes post injection, immediately fixed in formalin and embedded in paraffin. Sections were sliced and stored in the dark at −80° C. Immunofluorescent images were acquired at 400× magnification. Adjacent tumor sections were immunohistochemically stained with HercepTest™.
(§2) HER2 protein expression in excised tumors was assessed using the HercepTest™ (Dako, Ely, United Kingdom, Cat. Nr: K5204) according to manufacturer's instructions.
(§3) To examine cellular localization, GE-226[SEQ ID NO 1] was labeled with fluorescein and compared localization and fluorescent intensity in tumor sections with FDA approved DAKO HercepTest™. In contrast to PET experiments, normalization to injected dose is not possible with fluorescent compounds. To eliminate inter-subject variability, experiments were performed in bilateral tumor-bearing mice. […]

A431 tumors = assay: Fluorescent GE-226 localization versus DAKO HercepTest, A431 tumors; format: in vivo, mice; conditions: 15 mg/kg i.v., tumors excised two h post injection; HER2 negative
Description: as §1, §2, §3

## C=CCNC1=C2C[C@@H](C)C[C@H](OC)[C@H](O)[C@@H](C)/C=C(\C)[C@H](OC(N)=O)[C@@H](OC)/C=C\C=C(/C)C(=O)NC(=CC1=O)C2=O [17-allylaminogeldanamycin]
HER2 [1]
  effect on HER2: degrades HER2

## CCNC(=O)c1noc(-c2cc(C(C)C)c(O)cc2O)c1-c1ccc(CN2CCOCC2)cc1 [NVP-AUY922, reference compound]
SKOV-3 cells
  effect on tracer uptake in SKOV-3 cells: reduced tracer uptake
HER2 [2]
  effect on HER2 expression in tumors: reduced HER2 expression
SKOV-3 xenografts; 3 doses of 50 mg/kg NVP-AUY922
  effect on tracer uptake in vivo: decreased tracer uptake
SKOV-3 xenografts; three daily doses of 50 mg/kg NVP-AUY922, vehicle 618.4±90.1, P=0.043
  AUC0_60 of [18F]GE-226 after drug: 446.7±42.8 % ID/mL*min
SKOV-3 xenografts; three daily doses of 50 mg/kg NVP-AUY922 i.p., vehicle 13.5±2.1
  NUV60 of [18F]GE-226 after drug: 9.0±0.9 % ID/mL
HER2 [3]
  effect on HER2 protein expression: dose-dependent HER2 degradation; also recorded: dose-dependent decrease of HER2 protein expression

## fluorescein-GE-226: GE-226[SEQ ID NO 1] labeled with fluorescein
NCI-N87 tumors
  localization of fluorescent staining versus HER2: co-localized with regions that are HER2 positive
NCI-N87 tumors; listed as fluorescently labeled tracer analogue
  localization of fluorescent staining versus HER2: co-localized with HER2 expression at the cellular level
A431 tumors
  fluorescent staining: negligible

From patent publication US10646600B2, “HER2 polypeptides useful for imaging and monitoring tumors and cancers” (GE HEALTHCARE LIMITED, priority 2013, dated 2020)
